Experimental data reported in patent publication US10695337B2, “Piperidin-4-yl azetidine derivatives as JAK1 inhibitors” (Incyte Corporation, priority 2010, dated 2020).

Target: human JAK1 (a.a. 837-1142)
Experiment: In vitro JAK kinase assay (HTRF, phosphorylation of a biotinylated peptide), JAK1
Assay type: biochemical
Details: measured at 1 mM ATP; JAK2 IC50 / JAK1 IC50
Summary of the method: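 Phosphorylation of a biotinylated peptide by purified His-tagged JAK catalytic domains (insect-cell baculovirus expression) ran 1 hr at room temperature. After stopping with EDTA, Eu-Py20 and SA-APC were bound for 40 minutes and HTRF measured.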

Question: How did the “IC50 Ratio JAK2/JAK1” value turn out when N#CCC1(n2ccc(-c3ncnc4[nH]ccc34)c2)CN(C2CCN(C(=O)c3ccc(F)c(F)c3F)CC2)C1 [Example 280, {3-[3-(7H-pyrrolo[2,3-d]pyrimidin-4-yl)-1H-pyrrol-1-yl]-1-[1-(2,3,4-trifluorobenzoyl)piperidin-4-yl]azetidin-3-yl}acetonitrile] was run?
Answer: Its value is 7.5.

Question: How did the “IC50 Ratio JAK2/JAK1” value turn out when N#CCC1(n2ccc(-c3ncnc4[nH]ccc34)c2)CN(C2CCN(C(=O)c3cccc(OC(F)(F)F)c3F)CC2)C1 [Example 281, {1-{1-[2-fluoro-3-(trifluoromethoxy)benzoyl]piperidin-4-yl}-3-[3-(7H-pyrrolo[2,3-d]pyrimidin-4-yl)-1H-pyrrol-1-yl]azetidin-3-yl}acetonitrile] was run?
Answer: Its value is 10.0.

Question: For N#CCC1(n2ccc(-c3ncnc4[nH]ccc34)c2)CN(C2CCN(C(=O)c3ccc(O)c(C(F)(F)F)c3)CC2)C1 [Example 282, {1-{1-[4-hydroxy-3-(trifluoromethyl)benzoyl]piperidin-4-yl}-3-[3-(7H-pyrrolo[2,3-d]pyrimidin-4-yl)-1H-pyrrol-1-yl]azetidin-3-yl}acetonitrile], which “IC50 Ratio JAK2/JAK1” value is on record?
Answer: Its value is 3.4.

Question: How did the “IC50 Ratio JAK2/JAK1” value turn out when COc1ncccc1NC(=O)N1CCC(N2CC(CC#N)(n3ccc(-c4ncnc5[nH]ccc45)c3)C2)CC1 [Example 284, 4-{3-(cyanomethyl)-3-[3-(7H-pyrrolo[2,3-d]pyrimidin-4-yl)-1H-pyrrol-1-yl]azetidin-1-yl}-N-(2-methoxypyridin-3-yl)piperidine-1-carboxamide] was run?
Answer: Its value is 5.8.

Question: With Cc1nc(C(F)(F)F)ccc1NC(=O)N1CCC(N2CC(CC#N)(n3ccc(-c4ncnc5[nH]ccc45)c3)C2)CC1 [Example 285, 4-{3-(cyanomethyl)-3-[3-(7H-pyrrolo[2,3-d]pyrimidin-4-yl)-1H-pyrrol-1-yl]azetidin-1-yl}-N-[2-methyl-6-(trifluoromethyl)pyridin-3-yl]piperidine-1-carboxamide] as the compound, how does the “IC50 Ratio JAK2/JAK1” value read?
Answer: The value was 5.7.

Question: How did the “IC50 Ratio JAK2/JAK1” value turn out when N#CCC1(n2ccc(-c3ncnc4[nH]ccc34)c2)CN(C2CCN(C(=O)Nc3ccccc3C#N)CC2)C1 [Example 287, 4-{3-(cyanomethyl)-3-[3-(7H-pyrrolo[2,3-d]pyrimidin-4-yl)-1H-pyrrol-1-yl]azetidin-1-yl}-N-(2-cyanophenyl)piperidine-1-carboxamide] was run?
Answer: The value was 6.7.

Question: How did the “IC50 Ratio JAK2/JAK1” value turn out when COc1ccccc1NC(=O)N1CCC(N2CC(CC#N)(n3ccc(-c4ncnc5[nH]ccc45)c3)C2)CC1 [Example 288, 4-{3-(cyanomethyl)-3-[3-(7H-pyrrolo[2,3-d]pyrimidin-4-yl)-1H-pyrrol-1-yl]azetidin-1-yl}-N-(2-methoxyphenyl)piperidine-1-carboxamide] was run?
Answer: The value was 9.0.

Question: With N#CCC1(n2ccc(-c3ncnc4[nH]ccc34)c2)CN(C2CCN(C(=O)Nc3ncccc3C(F)(F)F)CC2)C1 [Example 290, 4-{3-(cyanomethyl)-3-[3-(7H-pyrrolo[2,3-d]pyrimidin-4-yl)-1H-pyrrol-1-yl]azetidin-1-yl}-N-[3-(trifluoromethyl)pyridin-2-yl]piperidine-1-carboxamide] as the compound, how does the “IC50 Ratio JAK2/JAK1” value read?
Answer: Its value is 3.9.

Question: N#CCC1(n2ccc(-c3ncnc4[nH]ccc34)c2)CN(C2CCN(C(=O)Nc3ncccc3F)CC2)C1 [Example 292, 4-{3-(cyanomethyl)-3-[3-(7H-pyrrolo[2,3-d]pyrimidin-4-yl)-1H-pyrrol-1-yl]azetidin-1-yl}-N-(3-fluoropyridin-2-yl)piperidine-1-carboxamide] was tested. Which “IC50 Ratio JAK2/JAK1” value did it give?
Answer: The value was 9.1.

Question: With N#CCC1(n2ccc(-c3ncnc4[nH]ccc34)c2)CN(C2CCN(C(=O)Nc3ccc(Cl)cc3C#N)CC2)C1 [Example 293, 4-{3-(cyanomethyl)-3-[3-(7H-pyrrolo[2,3-d]pyrimidin-4-yl)-1H-pyrrol-1-yl]azetidin-1-yl}-N-(4-chloro-2-cyanophenyl)piperidine-1-carboxamide] as the compound, how does the “IC50 Ratio JAK2/JAK1” value read?
Answer: The value was 3.4.

Question: For N#CCC1(n2cc(-c3ccnc4[nH]ccc34)cn2)CN(C2CCN(C(=O)c3ccc(C#N)cc3F)CC2)C1 [Example 295, 4-[(4-{3-(cyanomethyl)-3-[4-(1H-pyrrolo[2,3-b]pyridin-4-yl)-1H-pyrazol-1-yl]azetidin-1-yl}piperidin-1-yl)cabonyl]-3-fluorobenzonitrile], which “IC50 Ratio JAK2/JAK1” value is on record?
Answer: Its value is 5.1.

Question: N#CCC1(n2cc(-c3ccnc4[nH]ccc34)cn2)CN(C2CCN(C(=O)c3ccc(O)c(F)c3)CC2)C1 [Example 296] was tested. Which “IC50 Ratio JAK2/JAK1” value did it give?
Answer: The value was 4.6.

Question: With N#CCC1(n2cc(-c3ccnc4[nH]ccc34)cn2)CN(C2CCN(C(=O)c3ccc(O)cc3F)CC2)C1 [Example 297, {1-[1-(2-fluoro-4-hydroxybenzoyl)piperidin-4-yl]-3-[4-(1H-pyrrolo[2,3-b]pyridin-4-yl)-1H-pyrazol-1-yl]azetidin-3-yl}acetonitrile] as the compound, how does the “IC50 Ratio JAK2/JAK1” value read?
Answer: The value was 10.0.

Question: Which “IC50 Ratio JAK2/JAK1” value does the source give for N#CCC1(n2cc(-c3ccnc4[nH]ccc34)cn2)CN(C2CCN(C(=O)c3cc(C(F)(F)F)ncc3Cl)CC2)C1 [Example 298, {1-{1-[5-chloro-2-(trifluoromethyl)isonicotinoyl]piperidin-4-yl}-3-[4-(1H-pyrrolo[2,3-b]pyridin-4-yl)-1H-pyrazol-1-yl]azetidin-3-yl}acetonitrile] here?
Answer: Its value is 2.8.

Question: For N#CCC1(n2cc(-c3ccnc4[nH]ccc34)cn2)CN(C2CCN(C(=O)c3ccnc(C(F)(F)F)n3)CC2)C1 [Example 299, [3-[4-(1H-pyrrolo[2,3-b]pyridin-4-yl)-1H-pyrazol-1-yl]-1-(1-{[2-(trifluoromethyl)pyrimidin-4-yl]carbonyl}piperidin-4-yl)azetidin-3-yl]acetonitrile], which “IC50 Ratio JAK2/JAK1” value is on record?
Answer: Its value is 6.6.

Question: How did the “IC50 Ratio JAK2/JAK1” value turn out when N#CCC1(n2cc(-c3ccnc4[nH]ccc34)cn2)CN(C2CCN(C(=O)c3cnc(C(F)(F)F)cn3)CC2)C1 [Example 301, [3-[4-(1H-pyrrolo[2,3-b]pyridin-4-yl)-1H-pyrazol-1-yl]-1-(1-{[5-(trifluoromethyl)pyrazin-2-yl]carbonyl}piperidin-4-yl)azetidin-3-yl]acetonitrile] was run?
Answer: The value was 3.3.

Question: How did the “IC50 Ratio JAK2/JAK1” value turn out when N#CCC1(n2cc(-c3ccnc4[nH]ccc34)cn2)CN(C2CCN(C(=O)C3CCC(F)(F)CC3)CC2)C1 [Example 302, {1-{1-[(4,4-difluorocyclohexyl)carbonyl]piperidin-4-yl}-3-[4-(1H-pyrrolo[2,3-b]pyridin-4-yl)-1H-pyrazol-1-yl]azetidin-3-yl}acetonitrile] was run?
Answer: The value was 6.5.

Question: Which “IC50 Ratio JAK2/JAK1” value does the source give for N#CCC1(n2cc(-c3ccnc4[nH]ccc34)cn2)CN(C2CCN(C(=O)Nc3ccc(F)cc3Cl)CC2)C1 [Example 305, N-(2-chloro-4-fluorophenyl)-4-{3-(cyanomethyl)-3-[4-(1H-pyrrolo[2,3-b]pyridin-4-yl)-1H-pyrazol-1-yl]azetidin-1-yl}piperidine-1-carboxamide] here?
Answer: The value was 16.0.

Question: COc1ncccc1NC(=O)N1CCC(N2CC(CC#N)(n3cc(-c4ccnc5[nH]ccc45)cn3)C2)CC1 [Example 306, 4-{3-(cyanomethyl)-3-[4-(1H-pyrrolo[2,3-b]pyridin-4-yl)-1H-pyrazol-1-yl]azetidin-1-yl}-N-(2-methoxypyridin-3-yl)piperidine-1-carboxamide] was tested. Which “IC50 Ratio JAK2/JAK1” value did it give?
Answer: Its value is 3.5.

Question: Which “IC50 Ratio JAK2/JAK1” value does the source give for N#CCC1(n2cc(-c3ccnc4[nH]ccc34)cn2)CN(C2CCN(C(=O)Nc3ccncc3C(F)(F)F)CC2)C1 [Example 307, 4-{3-(cyanomethyl)-3-[4-(1H-pyrrolo[2,3-b]pyridin-4-yl)-1H-pyrazol-1-yl]azetidin-1-yl}-N-[3-(trifluoromethyl)pyridin-4-yl]piperidine-1-carboxamide] here?
Answer: The value was 8.8.

Question: For N#CCC1(n2cc(-c3ccnc4[nH]ccc34)cn2)CN(C2CCN(C(=O)Nc3ccccc3F)CC2)C1 [Example 309, 4-{3-(cyanomethyl)-3-[4-(1H-pyrrolo[2,3-b]pyridin-4-yl)-1H-pyrazol-1-yl]azetidin-1-yl}-N-(2-fluorophenyl)piperidine-1-carboxamide], which “IC50 Ratio JAK2/JAK1” value is on record?
Answer: The value was 5.3.

Question: For N#CCC1(n2cc(-c3ccnc4[nH]ccc34)cn2)CN(C2CCN(C(=O)Nc3ccccc3Cl)CC2)C1 [Example 310, N-(2-chlorophenyl)-4-{3-(cyanomethyl)-3-[4-(1H-pyrrolo[2,3-b]pyridin-4-yl)-1H-pyrazol-1-yl]azetidin-1-yl}piperidine-1-carboxamide], which “IC50 Ratio JAK2/JAK1” value is on record?
Answer: The value was 9.0.

Question: Which “IC50 Ratio JAK2/JAK1” value does the source give for N#CCC1(n2cc(-c3ccnc4[nH]ccc34)cn2)CN(C2CCN(C(=O)Nc3ccc(C#N)cc3F)CC2)C1 [Example 312, N-(4-cyano-2-fluorophenyl)-4-{3-(cyanomethyl)-3-[4-(1H-pyrrolo[2,3-b]pyridin-4-yl)-1H-pyrazol-1-yl]azetidin-1-yl}piperidine-1-carboxamide] here?
Answer: The value was 5.3.

Question: N#CCC1(n2cc(-c3c(F)cnc4[nH]ccc34)cn2)CN(C2CCN(C(=O)c3ccnc(C(F)(F)F)c3F)CC2)C1 [Example 314, (3-[4-(5-Fluoro-1H-pyrrolo[2,3-b]pyridin-4-yl)-1H-pyrazol-1-yl]-1-{1-[3-fluoro-2-(trifluoromethyl)isonicotinoyl]piperidin-4-yl}azetidin-3-yl)acetonitrile] was tested. Which “IC50 Ratio JAK2/JAK1” value did it give?
Answer: Its value is 11.0.

Question: How did the “IC50 Ratio JAK2/JAK1” value turn out when N#CCC1(n2cc(-c3c(F)cnc4[nH]ccc34)cn2)CN(C2CCN(C(=O)c3cc(F)cc(C#N)c3)CC2)C1 [Example 316, 3-[(4-{3-(cyanomethyl)-3-[4-(5-fluoro-1H-pyrrolo[2,3-b]pyridin-4-yl)-1H-pyrazol-1-yl]azetidin-1-yl}piperidin-1-yl)carbonyl]-5-fluorobenzonitrile] was run?
Answer: Its value is 9.5.

Question: For N#CCC1(n2cc(-c3c(F)cnc4[nH]ccc34)cn2)CN(C2CCN(C(=O)c3ccc(C#N)cc3F)CC2)C1 [Example 317, 4-[(4-{3-(cyanomethyl)-3-[4-(5-fluoro-1H-pyrrolo[2,3-b]pyridin-4-yl)-1H-pyrazol-1-yl]azetidin-1-yl}piperidin-1-yl)carbonyl]-3-fluorobenzonitrile], which “IC50 Ratio JAK2/JAK1” value is on record?
Answer: The value was 4.5.

Question: N#CCC1(n2cc(-c3c(F)cnc4[nH]ccc34)cn2)CN(C2CCN(C(=O)c3ccc(F)c(C#N)c3)CC2)C1 [Example 318, 5-[(4-{3-(cyanomethyl)-3-[4-(5-fluoro-1H-pyrrolo[2,3-b]pyridin-4-yl)-1H-pyrazol-1-yl]azetidin-1-yl}piperidin-1-yl)carbonyl]-2-fluorobenzonitrile] was tested. Which “IC50 Ratio JAK2/JAK1” value did it give?
Answer: The value was 4.7.

Question: How did the “IC50 Ratio JAK2/JAK1” value turn out when N#CCC1(n2cc(-c3c(F)cnc4[nH]ccc34)cn2)CN(C2CCN(C(=O)c3ccc(F)cn3)CC2)C1 [Example 319] was run?
Answer: The value was 4.0.
